This is an account of results in patent publication US5432175A, “Pyridine and pyridine N-oxide derivatives of diaryl methyl piperidines or piperazines, and compositions and methods of use thereof” (Schering Corporation, priority 1993, dated 1995).

Assay [1] relates to PAF-induced platelet aggregation. Description: Platelet Aggregation Assay (in vitro PAF antagonism, human platelet-rich plasma). To be noted: 37° C., PAF 1-5×10^-8 M. The assay is classed as cell-based. On the procedure:
Platelet Aggregation Assay
Platelet-activating factor (PAF) causes aggregation of platelets by a receptor-mediated mechanism. Therefore, PAF-induced platelet aggregation provides a simple and convenient assay to screen compounds for PAF antagonism.
Blood was centrifuged at 110×g for 15 min. and the supernatant platelet-rich plasma (PRP) carefully transferred into a polypropylene tube. Platelet-poor-plasma (PPP) was prepared by centrifuging PRP at 12,000×g for 2 min. PRP was used within 3 hr. of drawing the blood.
PAF was dissolved in chloroform:methanol (1:1, v/v) at a concentration of 2 mg/ml and stored at -70° C. An aliquot of this solution was transferred to a polypropylene tube and dried under a flow of nitrogen gas. […] The solution was sonicated for 5 min. This stock solution was further diluted to appropriate concentrations in Hepes-saline-BSA buffer. Collagen and adenosine diphosphate (ADP) were purchased as solutions. Test compounds were initially dissolved in dimethyl sulfoxide (DMSO) at a concentration of 50 mM and then further diluted in Hepes-saline-BSA buffer to achieve appropriate concentrations.
When an aggregating agent such as PAF is added to PRP, platelets aggregate. An aggregometer quantifies this aggregation by measuring and comparing light (infra-red) transmission through PPP and PRP. Aggregation assays were performed using a dual-channel aggregometer. PRP (0.45 ml) in aggregometer cuvettes was continually stirred (37° C.). Solutions (50 μL) of test compounds or vehicle were added to the PRP and, after incubation for 2 min., 10-15 μl aliquots of PAF solution were added to achieve a final concentration of 1-5×10^-8 M. In different experiments the aggregatory response was kept within a set limit by varying the concentration of PAF. Incubations were continued until the increase in light transmission reached a maximum (usually 2 min.). This increase in light transmission reflecting platelet aggregation is transmitted to a computer. The computer calculates the slope of transmission change, thus providing the rate of aggregation. Values for inhibition were calculated by comparing rates of aggregation obtained in the absence and the presence of the compound. For each experiment, a standard PAF antagonist such as 8-chloro-6,11-dihydro-11 -(1-acetyl-4-piperidylidene)-5H-benzo[5,6]cyclohepta[1,2-b]pyridine was used as a positive control. […]

In another assay the test system is PAF-induced bronchospasm. The assay is described as follows: PAF-induced bronchospasm in guinea pigs (in vivo). The arrangement: species or system guinea pig (male Hartley). To be noted: Cavia porcellus, read-out: Agonist Bronchospasm (in vivo) PAF % Inhibition; for inhibition in vivo at 3 mg/kg: oral, PAF 0.4 μg/kg i.v. On the procedure: (§1) B. In Vivo Studies: Agonist-Induced Responses
(§2) Spasmogen-Induced Bronchospasm in Guinea Pigs
(§3) Male Hartley guinea pigs (450-550 g) were obtained from Charles River Breeding Laboratories. The animals were fasted overnight and the following day were anesthetized with 0.9 ml/kg i.p. of dilaurethane (containing 0.1 g/ml diallylbarbituric acid, 0.4 g/ml ethylurea and 0.4 g/ml urethane). The left jugular vein was cannulated for the administration of compounds. The trachea was cannulated and the animals were ventilated by a rodent respirator at 55 strokes/min. with a stroke volume of 4 ml. A side arm to the tracheal cannula was connected to a pressure transducer to obtain a continuous measure of inflation pressure. Bronchoconstriction was measured as the percent increase in inflation pressure that peaked within 5 min. after challenge with spasmogen. […] Each animal was challenged with only a single spasmogen. The effect of a compound on the bronchospasm is expressed as a percent inhibition of the increase in inflation pressure compared to the increase in a control group. […] The first two compounds in TABLE II are known compounds and are included for comparison purposes.

In assay [2] the test system is histamine-induced bronchospasm. Description: Histamine-induced bronchospasm in guinea pigs (in vivo). Conditions: oral, histamine 10 ug/kg i.v. The arrangement: species or system guinea pig (male Hartley). On the procedure:
as §1, §2, §3

As a reminder, the IC50 is the midpoint of a concentration-inhibition curve. A low value points to greater potency. In general, inhibition in vivo refers to the relative decrease from the control value, in per cent. `O=C(c1cc[n+]([O-])cc1)N1CCN(C(c2ccc(Cl)cc2)c2cccs2)CC1` (centres unmarked) had an IC50 in assay [1] of 200 nM. The inhibition in vivo at 3 mg/kg in the assay with PAF-induced bronchospasm is 22%. For `Cn1ccnc1C(=C1CCN(C(=O)c2cc[n+]([O-])cc2)CC1)c1ccc(Cl)cc1`, the midpoint of inhibition in assay [1], the IC50, lay at 2000 nM. As for `[O-][n+]1ccc(CN2CCC(=C(c3ccc(Cl)cc3)c3nccs3)CC2)cc1`, in assay [1], inhibition was half-maximal at 35000 nM (IC50). With `CC(=O)N1CCC(=C2c3ccc(Cl)cc3CCc3cccnc32)CC1` [reference compound], in assay [1], the 50% inhibitory concentration (IC50) came out at 610 nM. For the same compound, in the assay on PAF-induced bronchospasm, the inhibition in vivo at 3 mg/kg was found to be 4%. The “Agonist Bronchospasm (in vivo) Histamine % Inhibition” value in assay [2] (dose 3 mg/kg) came to 48%. Take `O=C(c1cc[n+]([O-])cc1)N1CCC(=C(c2ccc(Cl)cc2)c2cccs2)CC1`: in assay [1], 500 nM corresponded to half-maximal inhibition (IC50).

Consider `[O-][n+]1ccc(CN2CCC(=C(c3ccc(Cl)cc3)c3ccccn3)CC2)cc1`, for which, in assay [1], the IC50 came out at 12000 nM. In the assay on PAF-induced bronchospasm, the inhibition in vivo at 3 mg/kg turned out to be 18%. Further, the “Agonist Bronchospasm (in vivo) Histamine % Inhibition” value in assay [2] (dose 3 mg/kg) is given as 95%. The corresponding values for `O=C(c1cc[n+]([O-])cc1)N1CCC(=C(c2ccc(Cl)cc2)c2ccccn2)CC1` are 500 nM, 100% and 0%. Compound `[O-][n+]1ccc(CN2CCN(C(c3ccc(Cl)cc3)c3cccs3)CC2)cc1` (centres unmarked) showed an IC50 in assay [1] of 15000 nM. Same read-out and setting: in the case of `O=C(c1cc[n+]([O-])cc1)N1CCC(=C(c2ccc(Cl)cc2)c2nccs2)CC1` it was 1000 nM; in that of `[O-][n+]1ccc(CN2CCN(C(c3ccc(Cl)cc3)c3nccs3)CC2)cc1` (centres unmarked), 12000 nM; in that of `Cn1ccnc1C(=C1CCN(Cc2cc[n+]([O-])cc2)CC1)c1ccc(Cl)cc1`, 20000 nM. In turn, `O=C(c1cc[n+]([O-])cc1)N1CCC(=C(c2ccccc2)c2ccccc2)CC1` yielded an IC50 in assay [1] of 3000 nM. Besides, in the assay on PAF-induced bronchospasm, the inhibition in vivo at 3 mg/kg was found to be 44%. Besides, the “Agonist Bronchospasm (in vivo) Histamine % Inhibition” value in assay [2] (dose 3 mg/kg) came to 0%. Take `O=C(c1cc[n+]([O-])cc1)N1CCN(C(c2ccc(Cl)cc2)c2nccs2)CC1` (centres unmarked): the IC50 in assay [1] was determined as 1000 nM. The inhibition in vivo at 3 mg/kg in the assay with PAF-induced bronchospasm came out at 73%. In addition, the “Agonist Bronchospasm (in vivo) Histamine % Inhibition” value in assay [2] (dose 10 mg/kg) stood at 25%. For the compound `O=C(c1cc[n+]([O-])cc1)N1CCN(C(c2ccccc2)c2ccc(Cl)cc2)CC1` (centres unmarked), in assay [1], the IC50 was 1000 nM. Besides, in the assay with PAF-induced bronchospasm, the inhibition in vivo at 3 mg/kg was found to be 99%. For the same compound, the “Agonist Bronchospasm (in vivo) Histamine % Inhibition” value in assay [2] (dose 3 mg/kg) worked out at 30%. Regarding `CCOC(=O)N1CCC(=C2c3ccc(Cl)cc3CCc3cccnc32)CC1` [reference compound], the inhibition in vivo at 10 mg/kg with PAF-induced bronchospasm (po) is < 50%. The “Agonist Bronchospasm (in vivo) Histamine % Inhibition” value in assay [2] (dose 1 mg/kg) is > 50%.
